Measurements: patent US20240018110A1, “RADIOLABELED COMPOUNDS TARGETING THE PROSTATE-SPECIFIC MEMBRANE ANTIGEN” (THE UNIVERSITY OF BRITISH COLUMBIA, priority 2020, published 2024)

Legend:
PSMA = PSMA (Homo sapiens, UniProt Q04609); test: In vitro competitive binding assay
LNCaP xenograft = test: Biodistribution of 68Ga-labeled compounds in mice bearing LNCaP xenograft; assay type: in vivo; conditions: 1 h p.i.
Experimental: All chemicals and solvents were obtained from commercial sources, and used without further purification. PSMA-targeted peptides were synthesized using a solid phase approach on an AAPPTec (Louisville, KY) Endeavor 90 peptide synthesizer. Purification of peptides was performed on an Agilent 1260 Infinity II Preparative System equipped with a model 1260 Infinity II preparative binary pump, a model 1260 Infinity variable wavelength detector (set at 220 nm), and a 1290 Infinity II preparative open-bed fraction collector. The HPLC column used was a preparative column (Gemini, NX—C18, 5 μ, 50×30 mm) purchased from Phenomenex. The collected HPLC eluates containing the desired peptide were lyophilized using a Labconco (Kansas City, MO) FreeZone 4.5 Plus freeze-drier. Mass analyses were performed using a Waters LC-MS system with an ESI ion source. C18 Sep-Pak cartridges (1 cm^3, 50 mg) were obtained from Waters (Milford, MA). ^68Ga was eluted from an iThemba Labs (Somerset West, South Africa) generator. Radioactivity of ^68Ga-labeled peptides was measured using a Capintec (Ramsey, NJ) CRC®-25R/W dose calibrator, and the radioactivity of mouse tissues collected from biodistribution studies were counted using a Perkin Elmer (Waltham, MA) Wizard2 2480 automatic gamma counter.

Sequence of PSMA (Q04609 whole entry): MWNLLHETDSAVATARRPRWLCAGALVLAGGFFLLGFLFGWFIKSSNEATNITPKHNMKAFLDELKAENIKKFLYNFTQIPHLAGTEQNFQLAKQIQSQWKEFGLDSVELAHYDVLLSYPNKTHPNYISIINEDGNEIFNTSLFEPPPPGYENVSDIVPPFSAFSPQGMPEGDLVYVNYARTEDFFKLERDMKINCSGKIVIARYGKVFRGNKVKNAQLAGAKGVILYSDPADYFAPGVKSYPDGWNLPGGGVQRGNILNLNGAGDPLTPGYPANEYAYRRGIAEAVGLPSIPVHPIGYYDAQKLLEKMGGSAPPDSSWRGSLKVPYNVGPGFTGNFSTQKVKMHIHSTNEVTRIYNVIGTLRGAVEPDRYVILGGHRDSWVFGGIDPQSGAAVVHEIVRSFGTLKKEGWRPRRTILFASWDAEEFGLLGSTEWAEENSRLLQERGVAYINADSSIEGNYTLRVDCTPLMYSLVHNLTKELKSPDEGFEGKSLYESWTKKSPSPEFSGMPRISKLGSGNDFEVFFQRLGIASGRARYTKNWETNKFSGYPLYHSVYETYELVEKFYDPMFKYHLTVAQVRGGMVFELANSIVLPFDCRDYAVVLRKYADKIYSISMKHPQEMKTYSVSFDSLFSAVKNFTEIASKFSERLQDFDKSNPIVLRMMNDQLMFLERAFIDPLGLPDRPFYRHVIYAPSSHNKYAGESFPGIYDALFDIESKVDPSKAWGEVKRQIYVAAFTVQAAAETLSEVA

Row | Compound | Biodistribution, Adrenal (Avg) (LNCaP xenograft) | Biodistribution, Blood (Avg) (LNCaP xenograft) | Biodistribution, Bone (Avg) (LNCaP xenograft) | Biodistribution, Brain (Avg) (LNCaP xenograft) | Biodistribution, Fat (Avg) (LNCaP xenograft) | Biodistribution, Heart (Avg) (LNCaP xenograft) | Biodistribution, Intestine (Avg) (LNCaP xenograft) | Biodistribution, Kidney (Avg) (LNCaP xenograft) | Biodistribution, LNCaP tumor (Avg) (LNCaP xenograft) | Biodistribution, Liver (Avg) (LNCaP xenograft) | Biodistribution, Lungs (Avg) (LNCaP xenograft) | Biodistribution, Muscle (Avg) (LNCaP xenograft) | Biodistribution, Pancreas (Avg) (LNCaP xenograft) | Biodistribution, Salivary gland (Avg) (LNCaP xenograft) | Biodistribution, Seminal (Avg) (LNCaP xenograft) | Biodistribution, Spleen (Avg) (LNCaP xenograft) | Biodistribution, Stomach (Avg) (LNCaP xenograft) | Biodistribution, Testes (Avg) (LNCaP xenograft) | Biodistribution, Thyroid (Avg) (LNCaP xenograft) | Biodistribution, Urine (Avg) (LNCaP xenograft) | other results
1 | O=C(O)CCC[C@@H](OC(=O)N[C@@H](CCCCNC(=O)[C@H](Cc1c2ccccc2cc2ccccc12)NC(=O)[C@H]1CC[C@H](CNC(=O)CN2CCN(CC(=O)O)CCN(CC(=O)O)CCN(CC(=O)O)CC2)CC1)C(=O)O)C(=O)O [AR-2-050-2, DOTA-PSMA-Aad-carbamate] |  |  |  |  |  |  |  |  |  |  |  |  |  |  |  |  |  |  |  |  | Ki (PSMA): 240 nM
2 | O=C(O)CSCC(NC(=O)NC(Cc1cn(CCNC(=O)C(Cc2c3ccccc3cc3ccccc23)NC(=O)C2CCC(CNC(=O)CN3CCN(CC(=O)O)CCN(CC(=O)O)CCN(CC(=O)O)CC3)CC2)nn1)C(=O)O)C(=O)O.[68Ga] (centres unmarked) [^68Ga-CCZ01186] | 0.29 % ID/g | 0.72 % ID/g | 0.13 % ID/g | 0.02 % ID/g | 0.16 % ID/g | 0.57 % ID/g | 0.08 % ID/g | 2.20 % ID/g | 0.89 % ID/g | 0.23 % ID/g | 0.21 % ID/g | 0.23 % ID/g | 0.16 % ID/g | 0.40 % ID/g | 6.65 % ID/g | 0.34 % ID/g | 0.14 % ID/g | 0.17 % ID/g | 2.49 % ID/g | 439.81 % ID/g | 
3 | O=C(O)CSCC(NC(=O)NC(CNC(=O)CNC(=O)C(Cc1c2ccccc2cc2ccccc12)NC(=O)C1CCC(CNC(=O)CN2CCN(CC(=O)O)CCN(CC(=O)O)CCN(CC(=O)O)CC2)CC1)C(=O)O)C(=O)O.[68Ga] (centres unmarked) [68Ga-CCZ01194] | 0.65 % ID/g | 0.98 % ID/g | 0.14 % ID/g | 0.03 % ID/g | 0.27 % ID/g | 0.27 % ID/g | 0.79 % ID/g | 7.33 % ID/g | 9.12 % ID/g | 0.35 % ID/g | 0.70 % ID/g | 0.14 % ID/g | 0.15 % ID/g | 0.34 % ID/g | 0.13 % ID/g | 0.24 % ID/g | 0.09 % ID/g | 0.23 % ID/g | 0.29 % ID/g | 311.63 % ID/g | 
4 | O=C(O)CCC[C@H](OC(=O)N[C@@H](CCCCNC(=O)[C@H](Cc1c2ccccc2cc2ccccc12)NC(=O)[C@H]1CC[C@H](CNC(=O)CCc2ccc(O)c(CN(CCN(CC(=O)O)Cc3cc(CCC(=O)O)ccc3O)CC(=O)O)c2)CC1)C(=O)O)C(=O)O.[68Ga] [^68Ga-AR-113-1] | 1.22 % ID/g | 2.42 % ID/g | 0.34 % ID/g | 0.05 % ID/g | 0.56 % ID/g | 0.85 % ID/g | 1.36 % ID/g | 27.16 % ID/g | 11.86 % ID/g | 1.31 % ID/g | 1.93 % ID/g | 0.49 % ID/g | 0.34 % ID/g | 1.05 % ID/g |  | 0.61 % ID/g | 0.22 % ID/g | 0.79 % ID/g |  | 237.55 % ID/g | Biodistribution, Lacrimal (Avg) (LNCaP xenograft): 0.13 % ID/g
5 | O=C(O)CCC[C@H](NC(=O)N[C@@H](CSC[C@H](NC(=O)[C@H](Cc1c2ccccc2cc2ccccc12)NC(=O)C1CCC(CNC(=O)CN2CCN(CC(=O)O)CCN(CC(=O)O)CCN(CC(=O)O)CC2)CC1)C(=O)O)C(=O)O)C(=O)O (some centres unmarked) [CCZ02032] |  |  |  |  |  |  |  |  |  |  |  |  |  |  |  |  |  |  |  |  | Ki (PSMA): 3.2 nM
6 | O=C(O)CCC[C@H](OC(=O)N[C@@H](CCCCNC(=O)[C@H](Cc1c2ccccc2cc2ccccc12)NC(=O)[C@H]1CC[C@H](CNC(=O)CCc2ccc(O)c(CN(CCN(CC(=O)O)Cc3cc(CCC(=O)O)ccc3O)CC(=O)O)c2)CC1)C(=O)O)C(=O)O [AR-2-113-1, HBED-CC-PSMA-Aad-carbamate] |  |  |  |  |  |  |  |  |  |  |  |  |  |  |  |  |  |  |  |  | Ki (PSMA): 3.44 nM
7 | O=C(O)CCCC(NC(=O)NC(CCCONC(=O)C(Cc1c2ccccc2cc2ccccc12)NC(=O)C1CCC(CNC(=O)CN2CCN(CC(=O)O)CCN(CC(=O)O)CCN(CC(=O)O)CC2)CC1)C(=O)O)C(=O)O.[68Ga] (centres unmarked) [^68Ga-CCZ02018] | 0.53 % ID/g | 0.67 % ID/g | 0.13 % ID/g | 0.03 % ID/g | 0.17 % ID/g | 0.18 % ID/g | 0.25 % ID/g | 6.91 % ID/g | 18.88 % ID/g | 0.21 % ID/g | 0.58 % ID/g | 0.10 % ID/g | 0.13 % ID/g | 0.22 % ID/g | 0.27 % ID/g | 0.24 % ID/g | 0.07 % ID/g | 0.22 % ID/g | 0.20 % ID/g | 613.72 % ID/g | 
8 | O=C(O)CCCC(NC(=O)NC(COCCNC(=O)C(Cc1c2ccccc2cc2ccccc12)NC(=O)C1CCC(CNC(=O)CN2CCN(CC(=O)O)CCN(CC(=O)O)CCN(CC(=O)O)CC2)CC1)C(=O)O)C(=O)O.[68Ga] (centres unmarked) [^68Ga-CCZ02011] | 0.36 % ID/g | 0.58 % ID/g | 0.15 % ID/g | 0.02 % ID/g | 0.12 % ID/g | 0.18 % ID/g | 0.40 % ID/g | 4.10 % ID/g | 14.08 % ID/g | 0.27 % ID/g | 0.43 % ID/g | 0.15 % ID/g | 0.22 % ID/g | 0.27 % ID/g | 11.24 % ID/g | 0.23 % ID/g | 0.07 % ID/g | 0.51 % ID/g | 0.16 % ID/g | 343.93 % ID/g | Biodistribution, Lacrimal (Avg) (LNCaP xenograft): 0.33 % ID/g
9 | O=C(O)CCCC(NC(=O)NC(CNC(=O)CNC(=O)C(Cc1c2ccccc2cc2ccccc12)NC(=O)C1CCC(CNC(=O)CN2CCN(CC(=O)O)CCN(CC(=O)O)CCN(CC(=O)O)CC2)CC1)C(=O)O)C(=O)O.[68Ga] (centres unmarked) [68Ga-CCZ01198] | 0.19 % ID/g | 0.43 % ID/g | 0.07 % ID/g | 0.01 % ID/g | 0.07 % ID/g | 0.11 % ID/g | 0.16 % ID/g | 2.18 % ID/g | 4.84 % ID/g | 0.15 % ID/g | 0.32 % ID/g | 0.07 % ID/g | 0.08 % ID/g | 0.12 % ID/g | 0.47 % ID/g | 0.12 % ID/g | 0.03 % ID/g | 0.14 % ID/g | 0.13 % ID/g | 384.68 % ID/g | 
10 | O=C(O)CSCC(NC(=O)NC(Cc1ccc(NC(=O)C(Cc2c3ccccc3cc3ccccc23)NC(=O)C2CCC(CNC(=O)CN3CCN(CC(=O)O)CCN(CC(=O)O)CCN(CC(=O)O)CC3)CC2)cc1)C(=O)O)C(=O)O.[68Ga] (centres unmarked) [^68Ga-CCZ01188] | 0.98 % ID/g | 3.91 % ID/g | 0.23 % ID/g | 0.07 % ID/g | 0.62 % ID/g | 1.03 % ID/g | 0.56 % ID/g | 4.02 % ID/g | 1.43 % ID/g | 0.81 % ID/g | 2.15 % ID/g | 0.41 % ID/g | 0.38 % ID/g | 1.56 % ID/g | 0.85 % ID/g | 0.61 % ID/g | 0.19 % ID/g | 0.82 % ID/g | 0.67 % ID/g | 367.12 % ID/g | 
